Assay results reported in patent US10472354B2, “1,3-thiazol-2-yl substituted benzamides” (Bayer Aktiengesellschaft, priority 2014, dated 2019).

Assays:
[1] = In vitro metabolic stability in rat hepatocytes; assay type: in vitro ADME; conditions: 1 μM, in vitro metabolic stability given as calculated maximal oral bioavailability
Description: Determination of in vitro metabolic stability in rat hepatocytes (including calculation of hepatic in vivo blood clearance (CL))
Hepatocytes from Han Wistar rats were isolated via a 2-step perfusion method. After perfusion, the liver was carefully removed from the rat: the liver capsule was opened and the hepatocytes were gently shaken out into a Petri dish with ice-cold Williams' medium E (WME). The resulting cell suspension was filtered through sterile gaze in 50 mL falcon tubes and centrifuged at 50×g for 3 min at room temperature. The cell pellet was resuspended in 30 mL WME and centrifuged through a Percoll® gradient for 2 times at 100×g. The hepatocytes were washed again with WME and resuspended in medium containing 5% FCS. Cell viability was determined by trypan blue exclusion.
The test compound was added to a final concentration of 1 μM. […] Samples were frozen at −20° C. overnight, subsequently centrifuged for 15 minutes at 3000 rpm and the supernatant was analyzed with an Agilent 1200 HPLC-system with LCMS/MS detection.
(§1) The half-life of a test compound was determined from the concentration-time plot. From the half-life (kel: slope of concentration-time plot; half-life=ln 2/kel) the intrinsic clearances were calculated. Together with the additional parameters liver blood flow, amount of liver cells in vivo and in vitro.
(§2) Metabolic instability is often the main clearance mechanism of xenobiotica leading to a high CL and low bioavailability which may eventually result in a short half-life and a low exposure after oral administration. Thus, reducing the susceptibility of metabolic degradation usually leads to a more favourable pharmacokinetic profile. When using liver microsomes as incubation matrix main phase I metabolic reactions, typically oxidoreductive reactions by cytochrome P450 enzymes and flavin mono-oxygenases (FMO) and hydrolytic reactions by esterases/amidases/epoxidhydrolases, are described. When the incubation of the test compound is performed in a hepatocyte matrix all potential hepatic metabolic processes (phase I and phase II) are covered.

[2] = In vitro metabolic stability in liver microsomes (calculation of CL and Fmax); assay type: in vitro ADME, human; conditions: 1 μM, in vitro metabolic stability given as calculated maximal oral bioavailability
Description: Determination of in vitro metabolic stability in microsomes (including calculation of hepatic in vivo blood clearance (CL) and of maximal oral bioavailability (Fmax))
The metabolic assay was started shortly afterwards by adding the test compound to the incubation at a final volume of 1 mL. Organic solvent in the incubations was limited to ≤0.01% dimethylsulfoxide (DMSO) and ≤1% acetonitrile. […] Samples were frozen at −20° C. overnight, subsequently centrifuged for 15 minutes at 3000 rpm and the supernatant was analyzed with an Agilent 1200 HPLC-system with LCMS/MS detection.
as §1, with “specific” for “amount of”, “weight and microsomal protein content the hepatic” for “cells”, “vivo blood clearance (CL)” for “vivo”, “the maximal oral bioavailability (Fmax) were calculated for the different species.” for “in vitro.”
as §2

CYP2D6 = CYP2D6 (Homo sapiens (Human), UniProt P10635); test: CYP inhibition assay, CYP2D6; assay type: in vitro ADME; conditions: human liver microsomes, probe dextromethorphan
Description: (§3) Method Description CYP Inhibition Assay
(§4) Data analysis: The CYP-mediated activities in the presence of inhibitors were expressed as percentages of the corresponding control values. A sigmoid-shaped curve was fitted to the data, and the enzyme inhibition parameter IC50 was calculated using a nonlinear least-squares regression analysis of the plot of percent control activity versus concentration of the test inhibitor.

CYP2C9 = CYP2C9 (Homo sapiens (Human), UniProt P11712); test: CYP inhibition assay, CYP2C9; assay type: in vitro ADME; conditions: human liver microsomes, probe diclofenac
Description: as §3, §4

CYP2C8 = CYP2C8 (Homo sapiens (Human), UniProt P10632); test: CYP inhibition assay, CYP2C8; assay type: in vitro ADME; conditions: human liver microsomes, probe amodiquine
Description: as §3, §4

CYP3A4 = CYP3A4 (Homo sapiens (Human), UniProt P08684); test: CYP inhibition assay, CYP3A4; assay type: in vitro ADME; conditions: human liver microsomes, probe midazolam
Description: as §3, §4

CYP1A2 = CYP1A2 (Homo sapiens (Human), UniProt P05177); test: CYP inhibition assay, CYP1A2
Description: as §3, §4

[3] = clinical PhII trials; side effect attributed to blockade of P2X2/3 channels; cited from earlier work
[4] = Human liver cytosol stability assay; assay type: in vitro ADME; conditions: 4 h incubation, 37° C.
Description: Human Liver Cytosol Stability Assay
Method description: Human liver cytosol (pooled, >30 male and female donors) was incubated with individual test compounds in order to compare the extent of depletion of test compound and formation of the respective oxidised metabolite. […] An incubation volume of 1000 μL was used. The test compound was added from a stock solution in acetonitrile at 1 or 10 μM concentration in the incubation. Incubations were performed at 37° C. Reactions were stopped at 0 h and 4 h after incubation by addition of 100 μL acetonitrile to 250 μL of incubation mixture. Precipitated proteins were removed by centrifugation at approximately 3000 rpm. The supernatants were stored at approximately −20° C. until they were analysed. […]
Data analysis: The depletion of the test compound and formation of the corresponding metabolites were determined by decrease or increase of the corresponding peak area in the chromatogram after UV detection at approximately 300 nm 4 h after incubation compared to that at 0 h after incubation. […]

vaginal hyperalgesia = test: Rat dyspareunia model (visceromotor response to vaginal distension); assay type: in vivo; conditions: 15 mg/kg oral b.i.d. during 2 weeks, 5 and 6 weeks post-implantation
Description: The visceromotor response (VMR) to vaginal distension was used in conscious animals as an objective measure of vaginal sensitivity. Briefly, animals in estrus phase were surgically implanted with biopsies of left uterine horn (3×3 mm) around alternate cascade mesenteric arteries that supply the small intestine (4 pieces) and on the wall of the distal colon (2 pieces). To measure VMR response, 2 Teflon-coated wire electrodes were sutured in the external oblique abdominal muscle, and tunneled subcutaneously to be exteriorized at the base of the neck for future access. On the day of VMR assessment, a lubricated small balloon (1 cm length) was inserted into the mid-vaginal canal. […] The electrodes were connected to an amplifier (Animal Bio Amp, ADInstruments), and the abdominal electromyographic signal was recorded using a data acquisition system (PowerLab, ADInstruments) for off-line analysis using LabChart version 7. The number of abdominal muscle contractions was counted manually for each 0.1 ml distension step, as an index of vaginal pain. […] Statistical Analysis All data were expressed as mean±standard deviation (s.d.), for the number (n) of measured rats per group. […] Planned comparison of means (matched-volume versus vehicle) was performed using a Bonferroni post hoc test, provided that a main effect was detected. […]

Sequence of CYP1A2 (P05177 whole entry): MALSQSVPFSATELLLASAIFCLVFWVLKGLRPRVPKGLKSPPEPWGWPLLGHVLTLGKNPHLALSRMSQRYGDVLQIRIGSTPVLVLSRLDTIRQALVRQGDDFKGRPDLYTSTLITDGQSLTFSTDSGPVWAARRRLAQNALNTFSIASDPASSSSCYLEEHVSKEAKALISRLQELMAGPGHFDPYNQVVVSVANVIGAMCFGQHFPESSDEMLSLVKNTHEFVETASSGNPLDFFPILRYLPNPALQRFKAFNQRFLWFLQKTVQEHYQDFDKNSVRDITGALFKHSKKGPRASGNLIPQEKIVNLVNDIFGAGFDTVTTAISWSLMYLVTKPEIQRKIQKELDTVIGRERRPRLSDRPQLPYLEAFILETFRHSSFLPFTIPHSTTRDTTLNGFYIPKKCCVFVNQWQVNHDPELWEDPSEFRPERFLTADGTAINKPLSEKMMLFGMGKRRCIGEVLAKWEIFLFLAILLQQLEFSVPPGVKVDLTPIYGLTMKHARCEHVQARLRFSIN
Sequence of CYP3A4 (P08684 whole entry): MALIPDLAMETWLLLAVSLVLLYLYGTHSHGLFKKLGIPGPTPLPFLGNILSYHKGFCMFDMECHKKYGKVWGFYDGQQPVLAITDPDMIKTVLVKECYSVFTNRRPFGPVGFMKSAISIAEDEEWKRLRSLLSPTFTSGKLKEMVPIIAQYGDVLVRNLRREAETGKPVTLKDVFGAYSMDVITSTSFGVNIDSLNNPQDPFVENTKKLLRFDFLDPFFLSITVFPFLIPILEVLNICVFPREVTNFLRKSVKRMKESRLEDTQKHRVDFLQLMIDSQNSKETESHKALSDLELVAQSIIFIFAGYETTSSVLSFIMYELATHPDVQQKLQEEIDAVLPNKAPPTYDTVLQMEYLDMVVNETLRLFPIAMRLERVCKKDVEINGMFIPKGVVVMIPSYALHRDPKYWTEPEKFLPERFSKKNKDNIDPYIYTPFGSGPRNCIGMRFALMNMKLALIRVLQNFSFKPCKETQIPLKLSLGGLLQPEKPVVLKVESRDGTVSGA
Sequence of CYP2C9 (P11712 whole entry): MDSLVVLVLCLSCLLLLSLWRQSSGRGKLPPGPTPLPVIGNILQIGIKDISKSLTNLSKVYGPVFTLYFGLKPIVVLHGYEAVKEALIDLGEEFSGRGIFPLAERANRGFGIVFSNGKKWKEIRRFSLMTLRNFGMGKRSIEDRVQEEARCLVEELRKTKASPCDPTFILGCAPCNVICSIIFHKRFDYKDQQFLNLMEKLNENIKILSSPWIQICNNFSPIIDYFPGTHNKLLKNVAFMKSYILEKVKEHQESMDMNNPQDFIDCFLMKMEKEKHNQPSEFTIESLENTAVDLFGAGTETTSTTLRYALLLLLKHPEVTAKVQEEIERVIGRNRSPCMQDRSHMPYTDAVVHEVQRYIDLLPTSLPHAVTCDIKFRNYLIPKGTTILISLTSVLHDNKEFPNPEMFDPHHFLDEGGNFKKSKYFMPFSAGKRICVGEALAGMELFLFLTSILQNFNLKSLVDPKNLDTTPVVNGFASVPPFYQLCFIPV
Sequence of CYP2C8 (P10632 whole entry): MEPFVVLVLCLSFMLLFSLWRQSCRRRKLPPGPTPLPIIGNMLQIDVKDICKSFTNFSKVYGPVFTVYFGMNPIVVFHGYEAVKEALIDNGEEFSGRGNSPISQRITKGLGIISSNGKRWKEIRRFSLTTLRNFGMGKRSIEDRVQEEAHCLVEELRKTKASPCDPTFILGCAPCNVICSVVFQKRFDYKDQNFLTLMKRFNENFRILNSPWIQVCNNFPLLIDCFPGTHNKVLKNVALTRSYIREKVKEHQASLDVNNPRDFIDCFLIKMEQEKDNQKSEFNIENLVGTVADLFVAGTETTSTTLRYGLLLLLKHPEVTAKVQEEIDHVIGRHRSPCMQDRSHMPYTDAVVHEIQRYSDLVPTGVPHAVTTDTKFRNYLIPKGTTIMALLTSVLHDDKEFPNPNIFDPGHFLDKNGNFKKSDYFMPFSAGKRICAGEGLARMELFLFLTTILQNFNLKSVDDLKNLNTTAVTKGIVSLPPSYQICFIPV
Sequence of CYP2D6 (P10635 whole entry): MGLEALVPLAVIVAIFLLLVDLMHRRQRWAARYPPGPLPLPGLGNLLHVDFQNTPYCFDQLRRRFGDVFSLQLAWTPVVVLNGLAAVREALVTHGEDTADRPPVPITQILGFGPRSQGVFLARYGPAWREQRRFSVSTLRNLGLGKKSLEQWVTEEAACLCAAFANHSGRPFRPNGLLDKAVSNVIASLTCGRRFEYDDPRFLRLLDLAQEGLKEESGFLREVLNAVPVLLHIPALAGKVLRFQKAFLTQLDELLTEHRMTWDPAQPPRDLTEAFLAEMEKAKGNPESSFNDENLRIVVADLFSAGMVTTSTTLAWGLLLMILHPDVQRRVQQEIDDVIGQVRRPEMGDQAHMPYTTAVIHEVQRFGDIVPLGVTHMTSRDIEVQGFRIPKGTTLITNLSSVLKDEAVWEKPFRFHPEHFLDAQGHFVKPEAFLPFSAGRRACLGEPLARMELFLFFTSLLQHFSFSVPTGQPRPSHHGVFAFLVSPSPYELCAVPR

Row | Structure (SMILES) | Rat hepatocyte Fmax [1] [%] | Human liver microsome Fmax [2] [%] | further results
1 | COc1cc(C(C)C)c(Oc2cnc(N)nc2N)cc1S(N)(=O)=O [AF-219] | – | – | taste disturbances in treated subjects [3]: leads to taste disturbances
2 | Cc1cnc(-c2cc(O[C@@H]3CCOC3)cc(C(=O)N[C@H](C)c3cnc(C(F)(F)F)nc3)c2)s1 [Example 11, 3-(5-Methyl-1,3-thiazol-2-yl)-5-[(3R)-tetrahydrofuran-3-yloxy]-N-{(1R)-1-[2-(trifluoromethyl)pyrimidin-5-yl]ethyl}benzamide] | 52 | 57 | Test compound turnover after 4 h [4]: 0.9%; Vaginal hyperalgesia compared to vehicle-treated animals (vaginal hyperalgesia): decreased vaginal hyperalgesia
3 | Cc1cnc(-c2cc(O[C@H]3CCOC3)cc(C(=O)N[C@H](C)c3cnc(C(F)(F)F)nc3)c2)s1 [Example 26, 3-(5-Methyl-1,3-thiazol-2-yl)-5-[(3S)-tetrahydrofuran-3-yloxy]-N-{(1R)-1-[2-(trifluoromethyl)pyrimidin-5-yl]ethyl}benzamide] | 56 | 67 | Test compound turnover after 4 h [4]: 0.9%
4 | CCc1cnc(-c2cc(OC[C@H]3CN(C)CCO3)cc(C(=O)N[C@H](C)c3ccc(C(F)(F)F)nn3)c2)s1 [Example 419, 3-(5-ethyl-1,3-thiazol-2-yl)-5-{[(2R)-4-methylmorpholin-2-yl]methoxy}-N-{(1R)-1-[6-(trifluoromethyl)pyridazin-3-yl]ethyl}benzamide] | 51 | 74 | –

Second part, led by results:

Row | Rat hepatocyte Fmax [1] [%] | Human liver microsome Fmax [2] [%] | Structure (SMILES) | further results
5 | 53 | 100 | Cc1cnc(-c2cc(OC(C)C(C)O)cc(C(=O)N[C@H](C)c3cnc(C(F)(F)F)nc3)c2)s1 (single isomer, unassigned) [Example 163] | –
6 | 43 | 74 | Cc1cnc(-c2cc(OC(C)C(C)O)cc(C(=O)N[C@H](C)c3ccc(C(F)(F)F)nn3)c2)s1 (single isomer, unassigned) [Example 183] | –
7 | 52 | 94 | Cc1cnc(-c2cc(OC(C)C(C)O)cc(C(=O)N[C@H](C)c3cnc(C(F)(F)F)nc3)c2)s1 (single isomer, unassigned) [Example 339] | IC50 (CYP2D6): > 20 µM; IC50 (CYP2C9): > 20 µM; IC50 (CYP2C8): > 20 µM; IC50 (CYP3A4): > 20 µM; IC50 (CYP1A2): > 20 µM
8 | 64 | 90 | Cc1cnc(-c2cc(OC(C)C(C)O)cc(C(=O)N[C@H](C)c3cnc(C(F)(F)F)nc3)c2)s1 (single isomer, unassigned) [Example 340] | –
